Results from patent US20230272016A1, “PEPTIDES FOR IMMUNOTHERAPY” (Second Genome, Inc., priority 2020, published 2023).

Experiments:
[1] = tested on: CXCL10 production; assay: Three point dose response cytokine screen of microbiome peptides; format: cell-based; details: three point dose response curve
Protocol: Studies were performed to identify target peptides that induced CXCL10 production. Target peptides identified from human microbiomes isolated from humans that responded to anti-PD-1 therapy were each tested in a three point dose response curve with TNF-α, CXCL10, IL6, and INF-γ. […] Peptide sequences and characteristics can be found in Tables 13-15.

[2] = tested on: Human monocyte-derived dendritic cells (moDCs); assay: moDC stimulation with low dose LPS and peptide, flow cytometry; format: cell-based; details: LPS 2 ng/mL with peptide 10 μM
Protocol: Human monocyte-derived dendritic cells (moDCs) were stimulated with low dose lipopolysaccharide (LPS) (2 ng/mL) alone, LPS with peptides SG-3-00802 (10 μM) or SG-3-05021 (10 μM), and LPS (2 ng/mL) with IFNg (50 ng/mL) as a positive control. After stimulation of moDCs, flow cytometry was used to determine induction of the CSCR3 receptor.

[3] = tested on: human purified monocyte-derived dendritic cells; assay: Chemokine release from LPS stimulated monocyte-derived dendritic cells; format: cell-based; details: LPS at low concentrations, suboptimal activation
From the text: LPS was used at low concentrations for a suboptimal activation of dendritic cells in the presence of SG-3-00802 peptide or SG-3-05021 peptide.

[4] = tested on: immature monocyte-derived dendritic cells (moDCs) and allogeneic T cells; assay: moDC / allogeneic T cell co-culture cytokine secretion; format: cell-based, human; details: after anti-CD40 pre-stimulation, peptide alone or in combination with anti PD1; 72 hours; >4 donor PBMCs
Protocol: In another study, immature monocyte-derived dendritic cells (moDCs) were pre-stimulated with anti-CD40 agonist antibody or the mouse IgG1 isotype control antibody. Twenty-four hours later, T cells isolated from allogeneic donors were added to the moDCs with the peptide of interest, SG-3-00802 or SG-3-05021, alone or in combination with […] monoclonal antibody. The co-culture of cells was incubated for 72 hours, after which cell supernatants were harvested and analyzed for secretion of cytokines, IFN-g and TNF-α. Both SG-3-00802 and SG-3-05021 induced an increase in IFN-γ and TNF-α after stimulation with anti-CD40 either alone or in combination with anti PD1 (FIGS. 26A-26B and 27A-27B). Data shown for experiment conducted in >4 Donor PBMCs.

[5] = tested on: RENCA tumors; assay: RENCA murine adenocarcinoma syngeneic tumor model; format: in vivo, BALB/c mice; details: for survival time (days) / tumor volume: peptide 2.5 mg/kg daily peritumorally; for survival time (days): anti-PD-1 10 mg/kg i.p., compared to PBS or anti-PD-1 alone; for tumor volume: anti-PD-1 10 mg/kg intraperitoneal, compared to PBS treated control mice
Protocol: To determine anti-tumor activity of SG-3-00802 in vivo, the RENCA murine adenocarcinoma model was used. It is a syngeneic, standardized experimental model of metastatic RCC. Briefly, BALB/c female mice were inoculated subcutaneously with RENCA cells. Established tumors were treated daily with 2.5 mg/kg SG-3-00802 peritumorally, alone or in combination with intraperitoneal administration of 10 mg/kg anti-PD-1 antibody. […] QD indicates administration of the peptide once a day. BID indicates administration of the peptide twice a day.
Balb/c female mice were implanted with RENCA cells in the left flank. When tumors were established and reach ˜100 mm^3 or 200 mm^3 mice were allocated into dosing groups. Each dosing group had 10-12 animals. Peptides were dosed peritumoral at 2.5 mg/kg BID for 7 d and anti-PD-1 was dosed intraperitoneally at 10 mg/kg TIW for a total of 3 doses. Mice were monitored for tumor growth and survival. Tumor volumes were measured twice a week. A survival event (censoring) was reached when tumor volume reached 1000 mm^3 and additional survival events were defined as animals that had to be euthanized due to ulceration.
Additional studies were performed to test survival and tumor volume responses to a re-challenge event. In one study, mice were allocated into dosing groups when tumors reached ˜100 mm^3. During the initial dosing study, time 0 was the first day of seven days of dosing. […] Re-implantation was completed on day 39 after dosing completion. Treated mice were tumor free for >20 days before being re-challenge. […] Tumor volume and survival was been monitored as previously described. In the re-challenge experiment, time 0 is day 10 after re-challenge dosing.
In the initial dosing experiment, tumor volumes were smaller in both the SG-3-00802 alone treatment and SG-3-00802 with anti-PD-1 antibody combinatorial treatment 40 days after dosing started (FIGS. 32A-32B).
In another re-challenge study, mice were instead allocated into dosing groups when tumors reached ˜200 mm^3. The same procedure as described above was used, except where indicated. […] Re-implantation was completed on day 37 after dosing completion, and time 0 is day 12 post re-challenge. […] In the initial dosing experiment, tumor volumes were smaller in both the SG-3-00802 alone treatment and SG-3-00802 with anti-PD-1 antibody combinatorial treatment 15 days after dosing started (FIGS. 35A-35B).
To determine anti-tumor activity of SG-3-00802 in vivo, the RENCA murine adenocarcinoma model was used. Briefly, BALB/c female mice were inoculated subcutaneously with RENCA cells. Established tumors were treated daily with 2.5 mg/kg SG-3-00802 peritumorally, alone or in combination with intraperitoneal administration of 10 mg/kg anti-PD-1 antibody. […]

[6] = target: T1, SSTR1 (Homo sapiens, UniProt P30872); assay: PathHunter β-Arrestin GPCR assay (gpcrMAX); format: cell-based
T1 construct: expressed in transfected cells
T1 sequence (P30872 whole entry): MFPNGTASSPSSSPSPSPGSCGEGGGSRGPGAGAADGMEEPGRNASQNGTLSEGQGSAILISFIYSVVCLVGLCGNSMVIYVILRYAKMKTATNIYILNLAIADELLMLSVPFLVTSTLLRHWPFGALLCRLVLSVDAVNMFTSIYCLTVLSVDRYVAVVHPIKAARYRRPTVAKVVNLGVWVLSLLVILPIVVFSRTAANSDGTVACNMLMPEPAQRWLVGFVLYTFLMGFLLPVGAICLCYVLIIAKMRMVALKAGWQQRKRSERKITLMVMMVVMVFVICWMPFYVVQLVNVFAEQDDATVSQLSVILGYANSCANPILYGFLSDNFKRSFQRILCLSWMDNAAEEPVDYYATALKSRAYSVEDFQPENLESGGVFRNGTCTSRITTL
From the text: The PathHunter® β-Arrestin Assay monitored activation of a panel of 168 G-protein coupled receptors (GPCRs) with […] activation of the GPCR in agonist and antagonist mode.
where the test sample is the peptide, the vehicle control=DMSO (0% activity), and the control ligand=control compound (100% activity).
Peptides SG-3-00802 and SG-3-05021 were identified as an agonist, an antagonist, a PAM (Positive Allosteric Modulator), or an inverse-agonist. Agonist, antagonist, PAM, and inverse-agonist were identified according to the guidelines in Table 18. The basal activity/noise is a % activity of −20% to 20% for both agonist and antagonist modes. A PAM (Positive Allosteric Modulator) binds to a receptor, at a different site than the agonist, to change the receptor's response to the agonist. An inverse-Agonist is a binding partner with agonistic shutting down of basal activity in the cell. An antagonist antagonizes the activity of a particular binding partner.

In the case of “LGKTDWIEKYFKVKKEKIDKMQRFLQG [SG-3-05021, peptide from bacteroides.clarus.dsm.22519]”, the CXCL10 induction [1] is reported as “high CXCL10 induction”, the CXCR3 receptor internalization [2] is reported as “did not induce CXCR3 receptor internalization” and the DC-SIGN expression [2] is reported as “down-regulate DC-SIGN”. For the same sequence, the CXCL10 chemokine release [3] was “dose-dependent increase”, the IFN-γ secretion [4] was “increase” and the TNF-α secretion [4] was “increase”. For the same sequence, the “survival time (days)” value [5] was “survived a longer time”, the tumor volume [5] was “decrease in tumor volume” and the “GPCR target assay Interpretation” value [6] was “Inverse-agonist and PAM”.
In the case of “MKVRPSVKPMCEKCKIIRRKGRVMVICENPKHKQRQG [SG-3-00802, peptide from oscillibacter.sp t_155102]”, the CXCL10 induction [1] is reported as “high CXCL10 induction”, the CXCR3 receptor internalization [2] is reported as “did not induce CXCR3 receptor internalization” and the DC-SIGN expression [2] is reported as “down-regulate DC-SIGN”. For the same sequence, the CXCL10 chemokine release [3] was “dose-dependent increase”, the IFN-γ secretion [4] was “increase” and the TNF-α secretion [4] was “increase”. For the same sequence, the “volume of syngeneic RENCA tumors, dose dependence” value ([5]; QD or BID administration of the peptide) was “dose-dependent manner”, the “# of animals with complete tumor regression out of total animals per group (primary study)” value ([5]; Table 16, ~100 mm^3 study) was 2/12 and the “# of animals without tumor progression out of re-challenged animals per group (re-challenge study)” value ([5]; Table 16, ~100 mm^3 study) was 2/2. The “# of animals with complete tumor regression out of total animals per group (primary study)” value ([5]; Table 17, ~200 mm^3 study) was 0/10, the “survival, initial dosing” value ([5]; dosing groups allocated at tumors ~100 mm^3) was “increased survival” and the “survival, initial dosing” value ([5]; dosing groups allocated at tumors ~200 mm^3) was “increased survival”. The “survival time (days)” value [5] was “survived a longer time”, the tumor volume [5] was “robust decrease” and the “tumor volumes, initial dosing experiment” value ([5]; ~100 mm^3 study, 40 days after dosing started) was “smaller”. The “percent of mice surviving after re-challenge” value ([5]; ~100 mm^3 study, re-implantation on day 39 after dosing completion, opposite flank) was “increased percent of mice surviving”, the “tumor volumes after re-challenge” value ([5]; ~100 mm^3 study, vs PBS-treated control mice) was “remained smaller than PBS-treated control mice” and the “tumor volumes, initial dosing experiment” value ([5]; ~200 mm^3 study, 15 days after dosing started) was “smaller”. For the same sequence, the “GPCR target assay Interpretation” value [6] was “Inverse-agonist”.
